Assay results as given in ChEMBL document CHEMBL3044578, “Synthesis, insecticidal activity, and molecular docking studies of nitenpyram analogues with a flexible ester arm anchored on tetrahydropyrimidine ring” (2011).
Converted amounts (≈) assume the structure as drawn.

Experiments:
Assay type in all cases: functional
[1] = tested on: Nilaparvata lugens; assay: Insecticidal activity against Nilaparvata lugens (brown planthopper) assessed as mortality at 20 mg/l after 72 hr
[2] = tested on: Nilaparvata lugens; assay: Insecticidal activity against Nilaparvata lugens (brown planthopper) assessed as mortality at 500 mg/l after 72 hr
[3] = tested on: Nilaparvata lugens; assay: Insecticidal activity against Nilaparvata lugens (brown planthopper) assessed as mortality at 100 mg/l after 72 hr
[4] = tested on: Nilaparvata lugens; assay: Insecticidal activity against Nilaparvata lugens (brown planthopper) assessed as mortality after 72 hr

Compound `CCN(Cc1ccc(Cl)nc1)C1=C([N+](=O)[O-])CN(CCCC(=O)OC)CN1C` has a mortality at 20 µg/mL [1] of 79%, a mortality at 500 µg/mL [2] of 100% and a mortality at 100 µg/mL [3] of 100%.

In the case of `CCN(Cc1ccc(Cl)nc1)C1=C([N+](=O)[O-])CN(CCCC(=O)OC(C)(C)C)CN1C`, the mortality at 20 µg/mL [1] is reported as 36%, the mortality at 500 µg/mL [2] is reported as 100% and the mortality at 100 µg/mL [3] is reported as 68%.

Work on `CCN(Cc1ccc(Cl)nc1)C1=C([N+](=O)[O-])CN(CCCC(=O)OC(C)C)CN1C` yielded a mortality at 20 µg/mL [1] of 58%, a mortality at 500 µg/mL [2] of 100% and a mortality at 100 µg/mL [3] of 100%.

`CCN(Cc1ccc(Cl)nc1)/C(=C/[N+](=O)[O-])NC` [NITENPYRAM] was tested, and the mortality at 20 µg/mL [1] was 100%, the mortality at 500 µg/mL [2] was 100% and the mortality at 100 µg/mL [3] was 100%. For the same compound, the LC50 [4] was 0.129 µg/mL (≈ 0.477 µM).

`CCCOC(=O)CN1CC([N+](=O)[O-])=C(N(CC)Cc2ccc(Cl)nc2)N(C)C1` was tested, and the mortality at 20 µg/mL [1] was 73%, the mortality at 500 µg/mL [2] was 100% and the mortality at 100 µg/mL [3] was 96%.

Work on `CCCCOC(=O)CCCN1CC([N+](=O)[O-])=C(N(CC)Cc2ccc(Cl)nc2)N(C)C1` yielded a mortality at 20 µg/mL [1] of 82%, a mortality at 500 µg/mL [2] of 100% and a mortality at 100 µg/mL [3] of 100%.

`CCN(Cc1ccc(Cl)nc1)C1=C([N+](=O)[O-])CN(CC(=O)OC)CN1C` was tested, and the mortality at 20 µg/mL [1] was 86%, the mortality at 500 µg/mL [2] was 100% and the mortality at 100 µg/mL [3] was 94%.

For `CCCCOC(=O)CCN1CC([N+](=O)[O-])=C(N(CC)Cc2ccc(Cl)nc2)N(C)C1`, the mortality at 20 µg/mL [1] was 78%, the mortality at 500 µg/mL [2] was 100% and the mortality at 100 µg/mL [3] was 92%.

In the case of `CCN(Cc1ccc(Cl)nc1)C1=C([N+](=O)[O-])CN(CCC(=O)OC)CN1C`, the mortality at 20 µg/mL [1] is reported as 95%, the mortality at 500 µg/mL [2] is reported as 100% and the mortality at 100 µg/mL [3] is reported as 100%.

`CCN(Cc1ccc(Cl)nc1)C1=C([N+](=O)[O-])CN(CCCC(=O)OCC(C)C)CN1C` gave a mortality at 20 µg/mL [1] of 54%, a mortality at 500 µg/mL [2] of 100% and a mortality at 100 µg/mL [3] of 100%.

Work on `CCC(C)OC(=O)CCCN1CC([N+](=O)[O-])=C(N(CC)Cc2ccc(Cl)nc2)N(C)C1` (configuration not stated) yielded a mortality at 20 µg/mL [1] of 59%, a mortality at 500 µg/mL [2] of 100% and a mortality at 100 µg/mL [3] of 93%.

Compound `CCCOC(=O)CCCN1CC([N+](=O)[O-])=C(N(CC)Cc2ccc(Cl)nc2)N(C)C1` has a mortality at 20 µg/mL [1] of 43%, a mortality at 500 µg/mL [2] of 100% and a mortality at 100 µg/mL [3] of 100%.

With `O=[N+]([O-])/N=C1\NCCN1Cc1ccc(Cl)nc1` [IMIDACLOPRID] the mortality at 20 µg/mL [1] was 100%, the mortality at 500 µg/mL [2] was 100% and the mortality at 100 µg/mL [3] was 100%. The LC50 [4] was 0.108 µg/mL (≈ 0.422 µM).

In the case of `CCN(Cc1ccc(Cl)nc1)C1=C([N+](=O)[O-])CN(CC(=O)OC(C)(C)C)CN1C`, the mortality at 20 µg/mL [1] is reported as 47%, the mortality at 500 µg/mL [2] is reported as 100% and the mortality at 100 µg/mL [3] is reported as 73%.

Work on `CCN(Cc1ccc(Cl)nc1)C1=C([N+](=O)[O-])CN(CC(=O)OCC(C)C)CN1C` yielded a mortality at 20 µg/mL [1] of 68%, a mortality at 500 µg/mL [2] of 100% and a mortality at 100 µg/mL [3] of 100%.

`CCOC(=O)CN1CC([N+](=O)[O-])=C(N(CC)Cc2ccc(Cl)nc2)N(C)C1` was tested, and the mortality at 20 µg/mL [1] was 94%, the mortality at 500 µg/mL [2] was 100% and the mortality at 100 µg/mL [3] was 100%.

Compound `CCCCOC(=O)CN1CC([N+](=O)[O-])=C(N(CC)Cc2ccc(Cl)nc2)N(C)C1` has a mortality at 20 µg/mL [1] of 67%, a mortality at 500 µg/mL [2] of 100% and a mortality at 100 µg/mL [3] of 75%.

`CCCOC(=O)CCN1CC([N+](=O)[O-])=C(N(CC)Cc2ccc(Cl)nc2)N(C)C1` was tested, and the mortality at 20 µg/mL [1] was 100%, the mortality at 500 µg/mL [2] was 100% and the mortality at 100 µg/mL [3] was 100%. For the same compound, the LC50 [4] was 0.194 µg/mL (≈ 0.455 µM).

With `CCC(C)OC(=O)CCN1CC([N+](=O)[O-])=C(N(CC)Cc2ccc(Cl)nc2)N(C)C1` (configuration not stated) the mortality at 20 µg/mL [1] was 84%, the mortality at 500 µg/mL [2] was 100% and the mortality at 100 µg/mL [3] was 100%.

Work on `CCOC(=O)CCN1CC([N+](=O)[O-])=C(N(CC)Cc2ccc(Cl)nc2)N(C)C1` yielded a mortality at 20 µg/mL [1] of 93%, a mortality at 500 µg/mL [2] of 100% and a mortality at 100 µg/mL [3] of 100%.

In the case of `CCC(C)OC(=O)CN1CC([N+](=O)[O-])=C(N(CC)Cc2ccc(Cl)nc2)N(C)C1` (configuration not stated), the mortality at 20 µg/mL [1] is reported as 53%, the mortality at 500 µg/mL [2] is reported as 100% and the mortality at 100 µg/mL [3] is reported as 79%.

Work on `CCN(Cc1ccc(Cl)nc1)C1=C([N+](=O)[O-])CN(CCC(=O)OCC(C)C)CN1C` yielded a mortality at 20 µg/mL [1] of 52%, a mortality at 500 µg/mL [2] of 100% and a mortality at 100 µg/mL [3] of 100%.

In the case of `CCN(Cc1ccc(Cl)nc1)C1=C([N+](=O)[O-])CN(CCC(=O)OC(C)(C)C)CN1C`, the mortality at 20 µg/mL [1] is reported as 66%, the mortality at 500 µg/mL [2] is reported as 100% and the mortality at 100 µg/mL [3] is reported as 81%.

`CCN(Cc1ccc(Cl)nc1)C1=C([N+](=O)[O-])CN(CCC(=O)OC(C)C)CN1C` showed a mortality at 20 µg/mL [1] of 100%, a mortality at 500 µg/mL [2] of 100% and a mortality at 100 µg/mL [3] of 100%. It also gave an LC50 [4] of 0.162 µg/mL (≈ 0.38 µM).

For `CCOC(=O)CCCN1CC([N+](=O)[O-])=C(N(CC)Cc2ccc(Cl)nc2)N(C)C1`, the mortality at 20 µg/mL [1] was 85%, the mortality at 500 µg/mL [2] was 100% and the mortality at 100 µg/mL [3] was 100%.

In the case of `CCN(Cc1ccc(Cl)nc1)C1=C([N+](=O)[O-])CN(CC(=O)OC(C)C)CN1C`, the mortality at 20 µg/mL [1] is reported as 76%, the mortality at 500 µg/mL [2] is reported as 100% and the mortality at 100 µg/mL [3] is reported as 85%.
